How the values were obtained:
[1] = Screening incubation in USP simulated gastric fluid (SGF); conditions: incubation 37 °C, one hour, n = 2; <LOD = bupropion, its metabolites or other prodrugs not detected; LOD 0.1 ng/mL
Experimental: USP simulated gastric fluid preparation. Sodium chloride (0.02 g) and purified pepsin (0.032 g) that is derived from porcine stomach mucosa with an activity of 800 to 2,500 units per mg of protein were dissolved in 0.07 mL of concentrated hydrochloric acid and sufficient water to make 10 mL.
(§1) Pepsin is most efficient at cleaving peptide bonds between hydrophobic and aromatic amino acids such as phenylalanine, tryptophan and tyrosine. In order to simulate the pH and digestive enzymes of the stomach, USP simulated gastric fluid (SGF) was used. Conditions in the intestine were simulated using USP simulated intestinal fluid (SIF).
(§2) One hour metabolism or hydrolysis was considered to be sufficient time to generate detectable levels of metabolites, bearing in mind the likely exposure time in vivo. A blank media was used in each analysis to subtract a background from each LC-MS sample chromatogram. A t0 sample was also used to identify impurities related to each prodrug.
(§3) After one hour incubation of each compound in the selected media, the mixture was quenched with acetonitrile and the sample was centrifuged to remove precipitated proteins. The supernatant solution was analyzed immediately by LC-MS using data dependent acquisition analysis.
(§4) This transformation is commonly used to assess activity of oxidative enzyme CYP2B6 in human liver and intestinal microsomes. […] It was important to report if any of the other prodrugs were detected if for instance a possible multistep-prodrug was found.

[2] = Screening incubation in USP simulated intestinal fluid (SIF); conditions: incubation 37 °C, one hour, n = 2; <LOD = bupropion, its metabolites or other prodrugs not detected; LOD 0.1 ng/mL
Experimental: USP simulated intestinal fluid preparation. Monobasic potassium phosphate (0.068 g) was dissolved in 2.5 mL of water and mixed. Sodium hydroxide (0.77 mL of 0.2 M) and water (5.0 mL) were added. Pancreatin (0.1 g) was added and the pH adjusted with either 0.2 M sodium hydroxide or 0.2 M hydrochloric acid to a pH of 6.8 ± 0.1. The solution was diluted to 10 mL with water.
as §1, §2, §3, §4

[3] = Screening incubation in pooled human plasma (PHP); type: in vitro ADME; conditions: incubation 37 °C, one hour, n = 2; <LOD = bupropion, its metabolites or other prodrugs not detected; LOD 0.1 ng/mL
Excerpt: Pooled human plasma solution preparation. Citrated human plasma was pooled together from three separate donors.
Finally, pooled human plasma (PHP) was used to evaluate the prodrug stability/activation in blood since the plasma fraction contains much of the hydrolase activity in blood.

[4] = In vitro metabolic screen in the five media (SGF, SIF, HIM, HLM, PHP), overall statement; type: in vitro ADME; conditions: 37 °C, one hour, statement in words
Excerpt: A summary of the oral prodrug candidate matrix we developed is illustrated in Figure 2. It contained six main conditions and can be applied to the development of any drug candidate. The work plan starts out with a concept molecule which in this case was bupropion. At this stage prodrug candidates are identified and the literature is searched for transformations that have been reported and methods used to carry out these transformations. […] After synthesis and purification of each potential prodrug, full spectroscopic characterization was performed. Each prodrug was screened in the metabolic media to assess its stability. Potential prodrug candidates were then selected for further in vitro enzyme kinetic and hydrolysis studies to evaluate the most likely prodrug for further in vivo assessment.
The five media (SGF, SIF, HIM, HLM and PHP) best represent the transit a drug or prodrug would take if delivered by the oral route of administration.

[5] = Microsomal metabolic stability screen, pooled human intestinal microsomes (HIM); type: in vitro ADME; conditions: 10 µM prodrug, 0.02 mg/mL HIM, NADPH regenerating system, 37 °C, 60 min, n = 2; LOD 0.1 ng/mL
Experimental: Human intestinal microsome (HIM) stock solution preparation. HIM (0.2 mL) stock was added to PBS solution (9.8 mL). Final concentration; 0.2 mg/mL.
(§5) Microsomes, NADPH regenerating solutions A and B were thawed rapidly to 37 °C, then kept on wet ice until ready for use. A stock solution of the prodrug (5 mM) was prepared in ACN. To a 1.7 mL microcentrifuge tube in a 37 °C water bath was added the phosphate buffered saline solution (349 µL), the NADPH regenerating solution A (50 µL), the NADPH regenerating solution B (50 µL), and the prodrug solution (1 µL). After incubation for 5 min, microsome solution (50 µL) was added and the metabolism was initiated. The tube was vortex mixed. The final concentrations in this solution was 10 µM prodrug, 0.1 mg/mL HLM or 0.02 mg/mL HIM, 1.3 mM NADP^+, 0.4 U/mL glucose-6-phosphate dehydrogenase and 0.2% organic solvent. This solution was incubated for 60 min at 37 °C. The reaction was quenched by addition of acetonitrile (500 µL). The mixture was centrifuged at 10,000 × g for 10 min. The supernatant was analyzed by LC-MS analysis.
The intestinal cells contain cytochome P450 enzymes, flavin monoxygenases, esterases and UDP glucuroyl transferases. Condition III involved the use of pooled human intestinal microsomes (HIM) in order to simulate the potential metabolism that occurs during absorption and passage through the intestinal wall.

[6] = Microsomal metabolic stability screen, pooled human liver microsomes (HLM); type: in vitro ADME; conditions: 10 µM prodrug, 0.1 mg/mL HLM, NADPH regenerating system, 37 °C, 60 min, n = 2; LOD 0.1 ng/mL
Experimental: Human liver microsome (HLM) stock solution preparation. HLM (0.5 mL) stock was added to PBS solution (9.5 mL). Final concentration; 1 mg/mL. The PBS solution was prepared by addition of one USP PBS tablet (Sigma-Aldrich catalogue number P4417) dissolved in 200 mL deionised water.
as §5
After passing through the intestinal membrane into the portal circulation the prodrug quickly enters the liver. This metabolic condition was simulated in the present work by using pooled human liver microsomes (HLM).

[7] = Michaelis-Menten kinetics of bupropion formation in pooled human liver microsomes; type: in vitro ADME; design: intrinsic hepatic clearance (Cli, h): unit not given here
Experimental: Microsomes, NADPH regenerating solutions A and B were thawed rapidly to 37 °C, and then kept on ice until ready for use. Substrate solutions were prepared (1–500 µM) where the maximum concentration of DMSO was 1%, and the concentration of microsomes, NADPH regenerating solution B and phosphate buffer was fixed. After incubation for 5 min, NADPH regenerating solution A was added and the metabolism was initiated. Final volume was 100 μL. The tube was inverted twice and vortex mixed. The final concentrations of prodrug in this solution was 1–500 µM, HLM (0.1 mg/mL) or HIM (0.02 mg/mL), NADP^+ (1.3 mM), glucose-6-phosphate dehydrogenase (0.4 U/mL) and 1.0% DMSO. This solution was incubated for 20 min at 37 °C. The reaction was quenched by addition of 100 µL of acetonitrile. The mixture was centrifuged at 10,000 × g for 10 min. The supernatant was analyzed by LC-MS analysis.

Row | SMILES | Primary product detected in media SGF [1] | Primary product detected in media SIF [2] | Primary product detected in media PHP [3] | Product / activation to bupropion or its metabolites on screening in the metabolic media [4] | Primary product detected in media HIM [5] | Primary product detected in media HLM [6] | intrinsic hepatic clearance (Cli, h) ([7]; from HLM Michaelis-Menten parameters) | Vmax of bupropion formation ([7]; pooled HLM 0.1 mg/mL, substrate 1–500 µM, 20 min, 37 °C, n = 6) [pmol/min/mg HLM] | stability / hydrolysis in simulated gastric fluid (SGF pH 1.2, 37 °C) | stability at physiological pH (phosphate buffered saline pH 7.4, 37 °C)
1 | CO/C(=C(/C)N(C)C(C)(C)C)c1cccc(Cl)c1 [Compound 6, E/Z-N,O-dimethylated bupropion] | <LOD | <LOD | <LOD | N-methylbupropion (4) |  |  |  |  |  | 
2 | CC1C(c2cccc(Cl)c2)=NOCN1C(C)(C)C (racemic) [Compound 10, Rac-oxadiazine of bupropion] | <LOD | <LOD | <LOD |  |  |  |  |  |  | 
3 | Cc1c(-c2cccc(Cl)c2)oc(=O)n1C(C)(C)C [Compound 12, oxazolone of bupropion] | <LOD | <LOD | <LOD | no bupropion or metabolites thereof detected | <LOD | <LOD |  |  |  | 
4 | CC(C(=O)c1cccc(Cl)c1)N(Cc1ccccc1)C(C)(C)C (racemic) [Compound 5, Rac-N-benzyl bupropion] | <LOD | <LOD | <LOD |  | The major product was bupropion | The major product was bupropion | 87 | 1323 ± 42.2 |  | 
5 | CC(NC(C)(C)C)/C(=N/O)c1cccc(Cl)c1 (stereo not drawn) [Compound 9, syn- and anti-bupropion hydroxyimine] | <LOD | <LOD | <LOD | neither bupropion nor any of its metabolites were detected | <LOD | <LOD |  |  | none was detected | much greater stability than bupropion
6 | CC1C(c2cccc(Cl)c2)=NOC(=O)N1C(C)(C)C (racemic) [Compound 11, Rac-oxadiazinone of bupropion] | <LOD | <LOD | <LOD | resistant to all of the screening conditions | <LOD | <LOD |  |  |  | 
7 | CO/C(=C(/C)N(Cc1ccccc1)C(C)(C)C)c1cccc(Cl)c1 [Compound 7, (E/Z)-O-methyl N-benzyl bupropion] | <LOD | <LOD | <LOD |  | O-demethylated to N-benzylbupropion (5) | O-demethylated to N-benzylbupropion (5) |  |  |  | 
8 | CC(=O)O/C(=C(/C)N(C(C)=O)C(C)(C)C)c1cccc(Cl)c1 [Compound 8, (E/Z)-N,O-diacetylated bupropion] | <LOD | <LOD | <LOD | did not result in any activation back to bupropion or its metabolites | <LOD | <LOD |  |  |  | 

From publication PMC4035770 (Pharmaceuticals, 2014)
